Measured values published in ChEMBL document CHEMBL3228011, “trans-5-(3,3,3-Trifluoro-1-propenyl-)-2'-deoxyuridylate: a mechanism-based inhibitor of thymidylate synthetase” (J Med Chem, 1979).
pKd, pKi: −log10 of the molar value. Calls of active or inactive are those of the source. No cut-off for these calls is given here.

Assays:
Thymidylate synthase [1] = target: T1, Thymidylate synthase (Homo sapiens, UniProt P04818); assay: Competitive inhibition of thymidylate synthetase (unknown origin) in presence of 5,10-methylenetetrahydrofolate
Target sequence in this assay (P04818 whole entry): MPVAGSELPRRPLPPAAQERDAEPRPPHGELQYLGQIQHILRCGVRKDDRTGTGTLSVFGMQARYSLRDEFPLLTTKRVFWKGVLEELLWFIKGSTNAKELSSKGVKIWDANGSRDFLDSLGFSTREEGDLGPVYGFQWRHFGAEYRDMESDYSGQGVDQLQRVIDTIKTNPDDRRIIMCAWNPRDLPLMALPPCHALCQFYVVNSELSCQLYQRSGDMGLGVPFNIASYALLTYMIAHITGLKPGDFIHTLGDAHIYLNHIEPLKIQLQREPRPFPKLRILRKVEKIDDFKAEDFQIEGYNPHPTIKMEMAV

Thymidylate synthase [2] = target: T1, Thymidylate synthase; assay: Inhibition of thymidylate synthetase (unknown origin) assessed as decrease of first order enzyme activity in absence of 5,10-methylenetetrahydrofolate
Target sequence in this assay (P04818 2-313 limits assumed): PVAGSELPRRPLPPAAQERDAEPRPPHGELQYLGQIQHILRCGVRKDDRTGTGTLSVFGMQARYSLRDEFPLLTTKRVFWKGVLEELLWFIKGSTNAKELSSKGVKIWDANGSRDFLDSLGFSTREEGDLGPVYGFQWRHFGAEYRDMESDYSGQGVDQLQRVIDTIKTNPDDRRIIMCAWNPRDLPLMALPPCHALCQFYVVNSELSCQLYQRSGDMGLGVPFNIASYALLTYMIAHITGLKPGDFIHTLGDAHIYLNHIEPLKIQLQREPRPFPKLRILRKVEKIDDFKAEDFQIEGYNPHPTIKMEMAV

Thymidylate synthase [3] = target: T1, Thymidylate synthase; assay: Inhibition of thymidylate synthetase (unknown origin) assessed as decrease of first order enzyme activity in absence of 5,10-methylenetetrahydrofolate and presence of dUMP
Target sequence in this assay (P04818 2-313 limits assumed): as above

Thymidylate synthase [4] = target: T1, Thymidylate synthase; assay: Binding affinity to thymidylate synthetase (unknown origin)
Target sequence in this assay (P04818 whole entry): as the sequence (P04818 whole entry) above

Structure (SMILES): O=c1[nH]c(=O)n([C@H]2C[C@H](O)[C@@H](COP(=O)(O)O)O2)cc1/C=C/C(F)(F)F
- pKi (Thymidylate synthase [1]): 5.07
- inhibition (Thymidylate synthase [2]): Active
- inhibition (Thymidylate synthase [3]): inactive
- pKd (Thymidylate synthase [4]): 4.60
